Structures can show the parent of a compound that is named as a salt.
Each compound was assayed against Autotaxin (Homo sapiens (Human), UniProt Q13822) (assay: Autotaxin LPC Cascade Assay). Details: Autotaxin 5 nM, LPC 100 μM, choline oxidase/HRP/Ampliflu Red fluorescence read-out, 2% DMSO, RT; read-out: IC50 ATX Activity.
Type: biochemical
How it was run: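 Choline liberated from LPC by autotaxin during 1 h, after a 10-min RT compound preincubation, was converted through choline oxidase/HRP to a fluorescent Ampliflu Red product.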

Row | SMILES | IC50
1 | CC(C)[C@@H](NC(=O)c1cc(C(F)(F)F)ccc1F)C(=O)N1CCC2(CC1)C(=O)N(C)CN2c1ccc(S(C)(=O)=O)cc1 [Example 205, (R)-2-Fluoro-N-(3-methyl-1-(3-methyl-1-(4-(methylsulfonyl)phenyl)-4-oxo-1,3,8-triazaspiro[4.5]decan-8-yl)-1-oxobutan-2-yl)-5-(trifluoromethyl)benzamide] | < 500 nM
2 | CC(C)[C@@H](NC(=O)c1cc(C(F)(F)F)ccc1F)C(=O)N1CCC2(CC1)C(=O)N(C)CN2c1ccc2nccn2c1 [Example 206, (R)-2-Fluoro-N-(1-(1-(imidazo[1,2-a]pyridin-6-yl)-3-methyl-4-oxo-1,3,8-triazaspiro[4.5]decan-8-yl)-3-methyl-1-oxobutan-2-yl)-5-(trifluoromethyl)benzamide trifluoroacetic Acid Salt] | < 500 nM
3 | CC(C)[C@@H](NC(=O)c1cc(Cl)cc(C(F)(F)F)c1)C(=O)N1CCC2(CC1)C(=O)N(C)CN2c1ccc(=O)n(C)c1 [Example 207, (R)-3-Chloro-N-(3-methyl-1-(3-methyl-1-(1-methyl-6-oxo-1,6-dihydropyridin-3-yl)-4-oxo-1,3,8-triazaspiro[4.5]decan-8-yl)-1-oxobutan-2-yl)-5-(trifluoromethyl)benzamide] | < 500 nM
4 | CN1CN(c2ccc(=O)n(C)c2)C2(CCN(C(=O)[C@H](NC(=O)c3cc(C(F)(F)F)ccc3F)C3CCCC3)CC2)C1=O [Example 208, (R)—N-(1-Cyclopentyl-2-(3-methyl-1-(1-methyl-6-oxo-1,6-dihydropyridin-3-yl)-4-oxo-1,3,8-triazaspiro[4.5]decan-8-yl)-2-oxoethyl)-2-fluoro-5-(trifluoromethyl)benzamide] | < 500 nM
5 | COc1ccc(N2C(C)N(C)C(=O)C23CCN(C(=O)[C@H](NC(=O)c2cc(C(F)(F)F)ccc2F)C(C)C)CC3)cc1 (stereo partly drawn) [Example 209, 2-Fluoro-N-((2R)-1-(1-(4-methoxyphenyl)-2,3-dimethyl-4-oxo-1,3,8-triazaspiro[4.5]decan-8-yl)-3-methyl-1-oxobutan-2-yl)-5-(trifluoromethyl)benzamide] | < 500 nM
6 | CC(C)[C@@H](NC(=O)c1cc(C(F)(F)F)ccc1F)C(=O)N1CCC2(CC1)C(=O)N(C)[C@H](C)N2c1ccc(C(=O)O)cc1 [Example 212, 4-((R)-8-((R)-2-(2-Fluoro-5-(trifluoromethyl)benzamido)-3-methylbutanoyl)-2,3-dimethyl-4-oxo-1,3,8-triazaspiro[4.5]decan-1-yl)benzoic Acid] | < 500 nM
7 | CC(C)[C@@H](NC(=O)c1cc(C(F)(F)F)ccc1F)C(=O)N1CCC2(CC1)C(=O)N(C)[C@@H](C)N2c1ccc(C(=O)O)cc1 [Example 213, 4-((S)-8-((R)-2-(2-Fluoro-5-(trifluoromethyl)benzamido)-3-methylbutanoyl)-2,3-dimethyl-4-oxo-1,3,8-triazaspiro[4.5]decan-1-yl)benzoic Acid] | < 500 nM
8 | CC(C)[C@@H](NC(=O)c1cc(C(F)(F)F)ccc1F)C(=O)N1CCC2(CC1)C(=O)N(C)CN2c1ccc2[nH]ncc2c1 [Example 214, (R)—N-(1-(1-(1H-Indazol-5-yl)-3-methyl-4-oxo-1,3,8-triazaspiro[4.5]decan-8-yl)-3-methyl-1-oxobutan-2-yl)-2-fluoro-5-(trifluoromethyl)benzamide] | < 500 nM
9 | CCc1ccc(F)c(C(=O)N[C@@H](C(=O)N2CCC3(CC2)C(=O)N(C)CN3c2ccc3[nH]ncc3c2)C(C)C)c1 [Example 215, (R)—N-(1-(1-(1H-Indazol-5-yl)-3-methyl-4-oxo-1,3,8-triazaspiro[4.5]decan-8-yl)-3-methyl-1-oxobutan-2-yl)-5-ethyl-2-fluorobenzamide] | < 500 nM
10 | CCc1ccc(F)c(C(=O)N[C@@H](C(=O)N2CCC3(CC2)C(=O)N(C)CN3c2ccc3nc[nH]c3c2)C(C)C)c1 [Example 216, (R)—N-(1-(1-(1H-Benzo[d]imidazol-6-yl)-3-methyl-4-oxo-1,3,8-triazaspiro[4.5]decan-8-yl)-3-methyl-1-oxobutan-2-yl)-5-ethyl-2-fluorobenzamide] | < 500 nM
11 | Cc1cccc(C(=O)N[C@@H](C(=O)N2CCC3(CC2)COC(=O)N3c2ccccc2)C(C)C)c1 [Example 217, (R)-3-Methyl-N-(3-methyl-1-oxo-1-(2-oxo-1-phenyl-3-oxa-1,8-diazaspiro[4.5]decan-8-yl)butan-2-yl)benzamide] | ≥ 1000 nM
12 | CC(C)[C@@H](NC(=O)c1cc(C(F)(F)F)ccc1F)C(=O)N1CCC2(CC1)C(=O)N(C)CN2c1ccc(NC2COC2)cc1 [Example 218, (R)-2-Fluoro-N-(3-methyl-1-(3-methyl-1-(4-(oxetan-3-ylamino)phenyl)-4-oxo-1,3,8-triazaspiro[4.5]decan-8-yl)-1-oxobutan-2-yl)-5-(trifluoromethyl)benzamide] | < 500 nM
13 | COC1CC(CN2C(=O)N(C)C(=O)C23CCN(C(=O)[C@H](NC(=O)c2cc(C(F)(F)F)ccc2F)C(C)C)CC3)C1 (stereo partly drawn) [Example 219, (R)-2-Fluoro-N-(1-(1-((3-methoxycyclobutyl)methyl)-3-methyl-2,4-dioxo-1,3,8-triazaspiro[4.5]decan-8-yl)-3-methyl-1-oxobutan-2-yl)-5-(trifluoromethyl)benzamide] | ≥ 1000 nM
14 | CC(C)[C@@H](NC(=O)c1cc(C(F)(F)F)ccc1F)C(=O)N1CCC2(CC1)C(=O)N(C)CN2c1ccc(-c2nc[nH]n2)cc1 [Example 220, (R)—N-(1-(1-(4-(1H-1,2,4-Triazol-3-yl)phenyl)-3-methyl-4-oxo-1,3,8-triazaspiro[4.5]decan-8-yl)-3-methyl-1-oxobutan-2-yl)-2-fluoro-5-(trifluoromethyl)benzamide] | < 500 nM
15 | COC(=O)c1ccc(N2C(=O)N(C)C(=O)C23CCN(C(=O)[C@H](NC(=O)c2cc(C(F)(F)F)ccc2F)C(C)C)CC3)cc1 [Example 221, (R)-Methyl-4-(8-(2-(2-fluoro-5-(trifluoromethyl)benzamido)-3-methylbutanoyl)-3-methyl-2,4-dioxo-1,3,8-triazaspiro[4.5]decan-1-yl)benzoate] | < 500 nM
16 | CC(C)[C@@H](NC(=O)c1cc(C2CC2)ccc1F)C(=O)N1CCC2(CC1)C(=O)N(C)C(=O)N2c1ccc(C(=O)O)cc1 [Example 222, (R)-4-(8-(2-(5-Cyclopropyl-2-fluorobenzamido)-3-methylbutanoyl)-3-methyl-2,4-dioxo-1,3,8-triazaspiro[4.5]decan-1-yl)benzoic Acid] | < 500 nM
17 | CC(C)[C@@H](NC(=O)c1cc(C(F)(F)F)ccc1F)C(=O)N1CCC2(CC1)C(=O)N(C)C(=O)N2c1ccc(C(=O)O)cc1 [Example 223, (R)-4-(8-(2-(2-Fluoro-5-(trifluoromethyl)benzamido)-3-methylbutanoyl)-3-methyl-2,4-dioxo-1,3,8-triazaspiro[4.5]decan-1-yl)benzoic Acid] | < 500 nM
18 | CC(C)[C@@H](NC(=O)c1cc(C(F)(F)F)ccc1F)C(=O)N1CCC2(CC1)C(=O)N(C)C(=O)N2c1ccc(-c2nn[nH]n2)cc1 [Example 224, (R)—N-(1-(1-(4-(2H-Tetrazol-5-yl)phenyl)-3-methyl-2,4-dioxo-1,3,8-triazaspiro[4.5]decan-8-yl)-3-methyl-1-oxobutan-2-yl)-2-fluoro-5-(trifluoromethyl)benzamide] | < 500 nM
19 | CC(C)[C@@H](NC(=O)c1cc(OC(F)(F)F)ccc1F)C(=O)N1CCC2(CC1)C(=O)N(C)C(=O)N2c1ccc(-c2nn[nH]n2)cc1 [Example 225, (R)—N-(1-(1-(4-(2H-Tetrazol-5-yl)phenyl)-3-methyl-2,4-dioxo-1,3,8-triazaspiro[4.5]decan-8-yl)-3-methyl-1-oxobutan-2-yl)-2-fluoro-5-(trifluoromethoxy)benzamide] | < 500 nM
20 | CC(C)[C@@H](NC(=O)c1cc(OC(F)F)ccc1F)C(=O)N1CCC2(CC1)C(=O)N(C)C(=O)N2c1ccc(-c2nn[nH]n2)cc1 [Example 226, (R)—N-(1-(1-(4-(2H-Tetrazol-5-yl)phenyl)-3-methyl-2,4-dioxo-1,3,8-triazaspiro[4.5]decan-8-yl)-3-methyl-1-oxobutan-2-yl)-5-(difluoromethoxy)-2-fluorobenzamide] | < 500 nM
21 | CC(C)[C@@H](NC(=O)c1cc(C(F)(F)F)ccc1F)C(=O)N1CCC2(CC1)C(=O)N(C)CN2c1ccc(-c2nn[nH]n2)cc1 [Example 227, (R)—N-(1-(1-(4-(2H-Tetrazol-5-yl)phenyl)-3-methyl-4-oxo-1,3,8-triazaspiro[4.5]decan-8-yl)-3-methyl-1-oxobutan-2-yl)-2-fluoro-5-(trifluoromethyl)benzamide] | < 500 nM
22 | CC(C)[C@@H](NC(=O)c1ccccn1)C(=O)N1CCC2(CC1)C(=O)N(C)C(=O)N2c1ccc2[nH]ncc2c1 [Example 228, (R)—N-(1-(1-(1H-Indazol-5-yl)-3-methyl-2,4-dioxo-1,3,8-triazaspiro[4.5]decan-8-yl)-3-methyl-1-oxobutan-2-yl)picolinamide] | ≥ 1000 nM
23 | CC(C)[C@@H](NC(=O)c1cccnc1)C(=O)N1CCC2(CC1)C(=O)N(C)C(=O)N2c1ccc2[nH]ncc2c1 [Example 229, (R)—N-(1-(1-(1H-Indazol-5-yl)-3-methyl-2,4-dioxo-1,3,8-triazaspiro[4.5]decan-8-yl)-3-methyl-1-oxobutan-2-yl)nicotinamide] | ≥ 1000 nM
24 | CC(C)[C@@H](NC(=O)C1CCCCC1)C(=O)N1CCC2(CC1)C(=O)N(C)C(=O)N2c1ccc2[nH]ncc2c1 [Example 230, (R)—N-(1-(1-(1H-Indazol-5-yl)-3-methyl-2,4-dioxo-1,3,8-triazaspiro[4.5]decan-8-yl)-3-methyl-1-oxobutan-2-yl)cyclohexanecarboxamide] | ≥ 1000 nM
25 | CC(C)[C@@H](NC(=O)c1ccncc1)C(=O)N1CCC2(CC1)C(=O)N(C)C(=O)N2c1ccc2[nH]ncc2c1 [Example 231, (R)—N-(1-(1-(1H-Indazol-5-yl)-3-methyl-2,4-dioxo-1,3,8-triazaspiro[4.5]decan-8-yl)-3-methyl-1-oxobutan-2-yl)isonicotinamide] | ≥ 1000 nM
26 | CC(C)[C@@H](NC(=O)C(C)(C)C)C(=O)N1CCC2(CC1)C(=O)N(C)C(=O)N2c1ccc2[nH]ncc2c1 [Example 232, (R)—N-(1-(1-(1H-Indazol-5-yl)-3-methyl-2,4-dioxo-1,3,8-triazaspiro[4.5]decan-8-yl)-3-methyl-1-oxobutan-2-yl)pivalamide] | ≥ 1000 nM
